Conditions: 323.21 K, Fluid (supercritical or subcritical phases), Vibrating tube method

FC(F)=C(F)C(F)(F)F [hexafluoropropene]
Conditions | mass density [kg/m3]
17.7 kPa | 0.97
21.7 kPa | 1.12
25.1 kPa | 1.38
28.9 kPa | 1.62
32.8 kPa | 1.83
36.6 kPa | 2.07
40.3 kPa | 2.22
44.1 kPa | 2.51
47.8 kPa | 2.68
51.6 kPa | 2.99
55.2 kPa | 3.08
58.9 kPa | 3.32
62.6 kPa | 3.51
66.1 kPa | 3.74
69.7 kPa | 3.92
73.2 kPa | 4.09
76.7 kPa | 4.26
80.2 kPa | 4.49
83.7 kPa | 4.72
87.1 kPa | 4.86
90.6 kPa | 5.07
94.4 kPa | 5.41
98.1 kPa | 5.54
101.5 kPa | 5.74
105.2 kPa | 6.02
112.5 kPa | 6.44
116.2 kPa | 6.58
119.7 kPa | 6.8
123.2 kPa | 7
126.7 kPa | 7.23
130.2 kPa | 7.42
133.8 kPa | 7.66
137.6 kPa | 7.92
141.6 kPa | 8.08
145.4 kPa | 8.32
149.3 kPa | 8.52
153.2 kPa | 8.77
157.1 kPa | 8.98
160.9 kPa | 9.22
164.8 kPa | 9.47
168.8 kPa | 9.71
172.6 kPa | 9.88
176.5 kPa | 10.13
180.3 kPa | 10.38
184.3 kPa | 10.62
188.1 kPa | 10.76
195.8 kPa | 11.28
199.7 kPa | 11.49
203.6 kPa | 11.86
207.4 kPa | 12.01
211.1 kPa | 12.24
215 kPa | 12.39
218.8 kPa | 12.6
222.7 kPa | 12.84
226.4 kPa | 13.16
230.2 kPa | 13.39
233.8 kPa | 13.5
237.7 kPa | 13.84
241.4 kPa | 14.08
245.2 kPa | 14.29
249 kPa | 14.46
252.7 kPa | 14.72
260.3 kPa | 15.25
268.1 kPa | 15.67
272.2 kPa | 15.98
276.4 kPa | 16.15
280.6 kPa | 16.35
284.7 kPa | 16.67
288.7 kPa | 16.87
292.9 kPa | 17.17
297.1 kPa | 17.47
301.3 kPa | 17.8
305.4 kPa | 17.98
309.6 kPa | 18.21
313.9 kPa | 18.45
318 kPa | 18.81
322 kPa | 19
326.2 kPa | 19.25
330.3 kPa | 19.52
334.5 kPa | 19.75
338.7 kPa | 20.05
342.9 kPa | 20.26
347 kPa | 20.58
351.2 kPa | 20.86
355.4 kPa | 21.13
359.5 kPa | 21.34
363.6 kPa | 21.63
367.7 kPa | 21.82
371.9 kPa | 22.12
376 kPa | 22.33
380 kPa | 22.69
384.1 kPa | 22.94
388.2 kPa | 23.18
392.3 kPa | 23.49
396.4 kPa | 23.69
404.4 kPa | 24.26
408.5 kPa | 24.53
412.5 kPa | 24.78
416.5 kPa | 25
420.6 kPa | 25.28
424.6 kPa | 25.54
432.5 kPa | 26.08
436.6 kPa | 26.31
444.4 kPa | 26.88
448.4 kPa | 27.13
487.5 kPa | 29.75
499 kPa | 30.39
510.4 kPa | 31.18
521.8 kPa | 31.98
533.3 kPa | 32.74
544.4 kPa | 33.53
555.6 kPa | 34.31
566.8 kPa | 35.09
577.8 kPa | 35.78
588.8 kPa | 36.55
599.7 kPa | 37.33
610.7 kPa | 38.21
621.5 kPa | 38.96
632.3 kPa | 39.67
643 kPa | 40.4
653.8 kPa | 41.25
664.3 kPa | 42.12
675 kPa | 42.78
687.2 kPa | 43.61
697.7 kPa | 44.47
708.1 kPa | 45.16
721.9 kPa | 46.18
735.5 kPa | 47.22
747.6 kPa | 48.18
759.6 kPa | 49.01
769.7 kPa | 49.86
784.6 kPa | 50.99
799.5 kPa | 52.13
814.1 kPa | 53.28

Source: the NIST ThermoML archive (doi:10.1021/je900596d)
